Among the data in DBAASP are MIC values, retold here.

≈ marks a conversion by molar mass, not a printed value. A value given as a limit tells only on which side of the number the result lay.

Usually MIC stands for the lowest concentration that inhibits growth of the organism. Low values mean greater potency, high ones weaker potency.

Holding throughout (assay): ≥ marks a high value that may be exact or a test limit, other limits are often not marked, values filed in µg/mL are converted to µM
The subject of assay [1] is Staphylococcus aureus.
For assay [2], the system named is Candida albicans.
Assay [3] concerns Escherichia coli.
In assay [4] the test system is Klebsiella pneumoniae ATCC 700603.
For assay [5], the system named is Escherichia coli ATCC 25922.
Assay [6] concerns Staphylococcus aureus ATCC 25923.
Assay [7] deals with Pseudomonas aeruginosa ATCC 27853.
For assay [8], the system named is Pseudomonas aeruginosa.
The test system of assay [9] is Candida albicans ATCC 90028.
Assay [10] deals with Staphylococcus aureus ATCC 29213.
Assay [11] relates to Escherichia coli UB1005.
For assay [12], the system named is Pseudomonas aeruginosa PAO1.

For the molecule `CC[C@H](C)[C@H](NC(=O)[C@H](CC(C)C)NC(=O)[C@H](Cc1cnc[nH]1)NC(=O)[C@@H](NC(=O)[C@@H](NC(=O)[C@@H](NC(=O)CNC(=O)[C@H](CC(C)C)NC(=O)[C@H](C)NC(=O)[C@H](C)NC(=O)[C@H](CCCCN)NC(=O)CNC(=O)[C@@H](NC(=O)[C@H](Cc1cnc[nH]1)NC(=O)[C@H](CCCCN)NC(=O)[C@@H](NC(=O)[C@@H](NC(=O)[C@H](CC(=O)O)NC(=O)[C@H](CC(C)C)NC(=O)[C@H](Cc1ccccc1)NC(=O)CN)C(C)C)[C@@H](C)CC)C(C)C)C(C)C)C(C)C)[C@@H](C)O)C(=O)N[C@@H](CC(N)=O)C(=O)N[C@@H](CCC(N)=O)C(N)=O` [GFLDVIKHVGKAALGVVTHLINQ], the MIC in assay [1] worked out at 6.58 µM (≈ 16 µg/mL); in assay [2], 13.2 µM (≈ 32 µg/mL); in assay [3], 26.3 µM (≈ 64 µg/mL).
For `CC[C@H](C)[C@H](NC(=O)[C@@H](NC(=O)[C@@H]1CCCN1C(=O)[C@@H](NC(=O)[C@@H]1CCCN1C(=O)[C@H](CCCCN)NC(=O)[C@H](CCCCN)NC(=O)[C@H](CO)NC(=O)CN)C(C)C)[C@@H](C)CC)C(=O)N[C@@H](Cc1ccc(O)cc1)C(=O)N[C@H]1CSSC[C@@H](C(=O)N[C@@H](CCC(N)=O)C(=O)N[C@@H](CCCN=C(N)N)C(=O)N[C@@H](CCSC)C(=O)O)NC(=O)[C@H](CCCCN)NC(=O)[C@H](C)NC(=O)[C@H](CO)NC(=O)[C@H](CCCN=C(N)N)NC(=O)[C@H](CCCN=C(N)N)NC(=O)[C@H](CC(N)=O)NC1=O` [GSKKPVPIIYCNRRSAKCQRM], the MIC in assay [4] and in [5] was 26.3 µM (≈ 63.9 µg/mL) throughout.
Regarding `CC(C)C[C@H](NC(=O)CNC(=O)[C@@H]1CCCN1C(=O)[C@H](CCCCN)NC(=O)[C@H](CCCCN)NC(=O)[C@@H]1CCCN1C(=O)[C@H](CCCN=C(N)N)NC(=O)[C@H](CC(=O)O)NC(=O)[C@@H](N)CCCCN)C(=O)N[C@@H](CS)C(=O)N1CCC[C@H]1C(=O)N[C@@H](C)C(=O)N[C@@H](C)C(=O)N[C@@H](CCCCN)C(=O)N[C@@H](CCCCN)C(=O)N[C@@H](C)C(=O)N[C@@H](C)C(=O)N[C@@H](C)C(=O)N[C@@H](C)C(=O)N[C@@H](CCCCN)C(=O)N[C@@H](C)C(N)=O` [KDRPKKPGLCPAAKKAAAAKA], the MIC in assay [6] worked out at 118 µM (≈ 250 µg/mL); in assay [1], 118 µM (≈ 250 µg/mL); in [5], 14.7 µM (≈ 31.2 µg/mL); in assay [7], 29.5 µM (≈ 62.5 µg/mL); in assay [8] it was 58.9 µM (≈ 125 µg/mL); in [2], 236 µM (≈ 500 µg/mL). In assay [3], the MIC is over 236 µM.
As to `CC(C)C[C@H](NC(=O)CNC(=O)[C@H](C)NC(=O)[C@H](CC(C)C)NC(=O)[C@H](CCCCN)NC(=O)[C@H](CCCCN)NC(=O)[C@H](C)NC(=O)[C@H](CC(C)C)NC(=O)CNC(=O)[C@H](C)NC(=O)[C@H](Cc1c[nH]c2ccccc12)NC(=O)[C@H](CCCCN)NC(=O)[C@H](CCCCN)NC(=O)[C@H](C)NC(=O)[C@H](CC(C)C)NC(=O)CNC(=O)[C@H](C)NC(=O)[C@H](CC(C)C)NC(=O)[C@@H](N)CCCCN)C(=O)N[C@@H](C)C(=O)N[C@@H](CCCCN)C(N)=O` [KLAGLAKKWAGLAKKLAGLAK], the MIC in assay [1] was 7.49 µM (≈ 16 µg/mL); in [8], 7.49 µM (≈ 16 µg/mL); in assay [3], 3.74 µM (≈ 8 µg/mL).
For `CC(C)C[C@H](NC(=O)CNC(=O)[C@H](C)NC(=O)[C@H](CC(C)C)NC(=O)[C@H](CCCCN)NC(=O)[C@H](C)NC(=O)[C@H](CCCCN)NC(=O)[C@H](CC(C)C)NC(=O)CNC(=O)[C@H](C)NC(=O)[C@H](Cc1c[nH]c2ccccc12)NC(=O)[C@H](CCCCN)NC(=O)[C@H](C)NC(=O)[C@H](CCCCN)NC(=O)[C@H](CC(C)C)NC(=O)CNC(=O)[C@H](C)NC(=O)[C@H](CC(C)C)NC(=O)[C@@H](N)CCCCN)C(=O)N[C@@H](CCCCN)C(=O)N[C@@H](C)C(N)=O` [KLAGLKAKWAGLKAKLAGLKA], the MIC in assay [1], in assay [8] and in assay [3] was over 120 µM in each case.
Regarding `CC[C@H](C)[C@H](NC(=O)[C@H](CCCN=C(N)N)NC(=O)[C@H](CCC(N)=O)NC(=O)[C@@H](NC(=O)[C@@H](NC(=O)[C@H](CCCN=C(N)N)NC(=O)[C@@H](N)CCCCN)[C@@H](C)CC)C(C)C)C(=O)N[C@@H](CCCCN)C(=O)N[C@@H](CC(=O)O)C(=O)N[C@@H](C)C(=O)N[C@@H](CC(C)C)C(=O)N[C@@H](CCCN=C(N)N)C(=O)O` [KRIVQRIKDALR], the MIC worked out at 10 µM (≈ 15 µg/mL) in assay [5], 20 µM (≈ 29.9 µg/mL) in [7], 20 µM (≈ 29.9 µg/mL) in assay [9] and 40 µM (≈ 59.8 µg/mL) in [10].
Molecule `CC[C@H](C)[C@H](NC(=O)[C@H](Cc1ccccc1)NC(=O)[C@H](CO)NC(=O)[C@H](CCCCN)NC(=O)[C@H](Cc1c[nH]c2ccccc12)NC(=O)[C@@H](N)CCCCN)C(=O)N[C@@H](CCCCN)C(=O)N[C@@H](CCCCN)C(=O)N[C@@H](CC(C)C)C(=O)N[C@H](C(=O)N[C@@H](CO)C(=O)N[C@@H](CCCCN)C(=O)N[C@@H](CCCCN)C(=O)N[C@@H](CC(C)C)C(=O)N[C@@H](Cc1cnc[nH]1)C(=O)N[C@@H](CO)C(=O)N[C@@H](C)C(=O)N[C@@H](CCCCN)C(=O)N[C@@H](CCCCN)C(=O)N[C@@H](Cc1ccccc1)C(N)=O)[C@@H](C)O` [KWKSFIKKLTSKKLHSAKKF] showed an MIC in [8] of over 20.5 µM.
For the molecule `CC[C@H](C)[C@H](NC(=O)[C@H](CCCCN)NC(=O)[C@H](CC(=O)O)NC(=O)[C@H](Cc1ccccc1)NC(=O)[C@H](CC(C)C)NC(=O)[C@@H](N)CCCN=C(N)N)C(=O)N[C@@H](CCCN=C(N)N)C(=O)N[C@@H](CCC(N)=O)C(=O)N[C@H](C(=O)N[C@H](C(=O)N[C@@H](CCCN=C(N)N)C(=O)N[C@@H](CCCCN)C(=O)O)[C@@H](C)CC)C(C)C` [RLFDKIRQVIRK], the MIC was 5 µM (≈ 7.86 µg/mL) in [5], 10 µM (≈ 15.7 µg/mL) in assay [7], 5 µM (≈ 7.86 µg/mL) in assay [9] and 10 µM (≈ 15.7 µg/mL) in assay [10].
In assay [8], `CSCC[C@H](NC(=O)[C@@H](NC(=O)[C@H](CCCN=C(N)N)NC(=O)[C@H](Cc1ccccc1)NC(=O)[C@H](C)NC(=O)[C@H](C)NC(=O)[C@H](CCCCN)NC(=O)[C@H](CCCN=C(N)N)NC(=O)[C@H](Cc1c[nH]c2ccccc12)NC(=O)[C@H](C)NC(=O)[C@@H]1CCCN1C(=O)[C@@H](N)CCCN=C(N)N)C(C)C)C(=O)N[C@@H](CCCN=C(N)N)C(=O)N[C@@H](C)C(=O)N[C@@H](CS)C(=O)N[C@H](C(N)=O)C(C)C` [RPAWRKAAFRVMRACV] returned an MIC of 2.09 µM (≈ 4 µg/mL).
As for `CC[C@H](C)[C@H](NC(=O)[C@H](CCCCN)NC(=O)[C@H](CS)NC(=O)[C@H](C)NC(=O)[C@@H](NC(=O)[C@H](Cc1ccccc1)NC(=O)CNC(=O)[C@H](CC(C)C)NC(=O)CNC(=O)[C@@H](NC(=O)[C@H](CCCCN)NC(=O)[C@H](CCCCN)NC(=O)[C@H](CC(C)C)NC(=O)[C@H](CC(N)=O)NC(=O)[C@H](CCCCN)NC(=O)[C@H](CC(C)C)NC(=O)[C@@H](NC(=O)[C@H](CO)NC(=O)[C@H](CC(C)C)NC(=O)[C@H](CCSC)NC(=O)[C@@H](N)CO)C(C)C)C(C)C)C(C)C)C(=O)N[C@@H](CC(N)=O)C(=O)N[C@@H](CCCCN)C(=O)N[C@@H](CCC(N)=O)C(=O)N[C@@H](CS)C(=O)O` [SMLSVLKNLKKVGLGFVACKINKQC], the results for the MIC in [1], in assay [2] and in [3] were over 200 µM, over 200 µM and 200 µM (≈ 544 µg/mL), respectively.
As for `CC(C)C[C@H](NC(=O)[C@H](Cc1ccc(O)cc1)NC(=O)[C@@H]1CCCN1C(=O)[C@@H]1CCCN1C(=O)[C@H](CCCCN)NC(=O)[C@H](CC(=O)O)NC(=O)[C@@H](N)C(C)C)C(=O)N1CCC[C@H]1C(=O)N[C@@H](CCCN=C(N)N)C(=O)N1CCC[C@H]1C(=O)N[C@@H](CCCN=C(N)N)C(=O)N1CCC[C@H]1C(=O)N1CCC[C@H]1C(=O)N[C@@H](CCCN=C(N)N)C(=O)N[C@@H](CCCN=C(N)N)C(=O)N[C@@H](Cc1ccccc1)C(=O)N[C@@H](Cc1ccc(O)cc1)C(=O)N[C@@H](CC(N)=O)C(=O)N[C@@H](CCCN=C(N)N)C(N)=O` [VDKPPYLPRPRPPRRFYNR], the results for the MIC in [6], in [11] and in [12] were 6.6 µM (≈ 16 µg/mL), 0.364 µM (≈ 0.883 µg/mL) and 106 µM (≈ 256 µg/mL), respectively.
For `CC(C)C[C@H](NC(=O)[C@H](Cc1ccc(O)cc1)NC(=O)[C@@H]1CCCN1C(=O)[C@@H]1CCCN1C(=O)[C@H](CCCCN)NC(=O)[C@@H]1CCCN1C(=O)[C@@H](N)C(C)C)C(=O)N1CCC[C@H]1C(=O)N[C@@H](CCCN=C(N)N)C(=O)N1CCC[C@H]1C(=O)N[C@@H](CCCN=C(N)N)C(=O)N1CCC[C@H]1C(=O)N1CCC[C@H]1C(=O)N[C@@H](CCCN=C(N)N)C(=O)N[C@@H](CCCN=C(N)N)C(=O)N[C@@H](Cc1ccccc1)C(=O)N[C@@H](Cc1ccc(O)cc1)C(=O)N[C@@H](CC(N)=O)C(=O)N[C@@H](Cc1cnc[nH]1)C(N)=O` [VPKPPYLPRPRPPRRFYNH], in that order: 3.35 µM (≈ 8 µg/mL), 16.8 µM (≈ 40 µg/mL) and 107 µM (≈ 256 µg/mL).
